Data on 5 molecules can be found in ChEMBL document CHEMBL3822364, “Synthesis, characterization and antimicrobial activity of novel Schiff base tethered boronate esters of 1,2-O-isopropylidene-α-d-xylofuranose” (2016).

Assay [1] deals with Streptococcus mutans. The experiment in a line: Antibacterial activity against Streptococcus mutans MTCC 497 assessed as zone of inhibition at 100 ug/well measured after 24 hrs by agar well diffusion method. To be noted: MTCC 497, 24 h, read-out: DIZ. The format is functional.
The subject of assay [2] is Micrococcus luteus. Put plainly: Antibacterial activity against Micrococcus luteus MTCC 106 assessed as zone of inhibition at 100 ug/well measured after 24 hrs by agar well diffusion method. The class given is functional. To be noted: MTCC 106, 24 h, read-out: DIZ.
For assay [3], the system named is Staphylococcus aureus. The experiment in a line: Antibacterial activity against Staphylococcus aureus MTCC 3160 assessed as zone of inhibition at 100 ug/well measured after 24 hrs by agar well diffusion method. To be noted: MTCC 3160, 24 h, read-out: DIZ. The format is functional.
The test system of assay [4] is Salmonella paratyphi. Put plainly: Antibacterial activity against Salmonella paratyphi assessed as zone of inhibition at 100 ug/well measured after 24 hrs by agar well diffusion method. The format is functional, Salmonella enterica subsp. enterica serovar Paratyphi A. To be noted: Salmonella enterica, read-out: DIZ.
The subject of assay [5] is Salmonella typhi. The experiment in a line: Antibacterial activity against Salmonella typhi assessed as zone of inhibition at 100 ug/well measured after 24 hrs by agar well diffusion method. The format is functional, Salmonella enterica subsp. enterica serovar Typhi. Conditions: Salmonella enterica, read-out: DIZ.
Assay [6] has as its system Klebsiella pneumoniae. Put plainly: Antibacterial activity against Klebsiella pneumoniae MTCC 3384 assessed as zone of inhibition at 100 ug/well measured after 24 hrs by agar well diffusion method. The class given is functional. To be noted: MTCC 3384, 24 h, read-out: DIZ.
In assay [7] the test system is Candida albicans. The experiment in a line: Antifungal activity against Candida albicans MTCC 3017 assessed as zone of inhibition at 100 ug/well measured after 48 hrs by agar well diffusion method. To be noted: MTCC 3017, 48 h, read-out: DIZ. The format is functional.
The subject of assay [8] is Aspergillus fumigatus. The experiment in a line: Antifungal activity against Aspergillus fumigatus MTCC 343 assessed as zone of inhibition at 100 ug/well measured after 48 hrs by agar well diffusion method. The format is functional. Conditions: MTCC 343, 48 h, read-out: DIZ.
Assay [9] concerns Streptococcus mutans. The experiment in a line: Antibacterial activity against Streptococcus mutans MTCC 497 measured after 24 hrs by NCCL protocol based broth dilution method. The format is functional. Conditions: MTCC 497, 24 h.
For assay [10], the system named is Micrococcus luteus. Put plainly: Antibacterial activity against Micrococcus luteus MTCC 106 measured after 24 hrs by NCCL protocol based broth dilution method. To be noted: MTCC 106, 24 h. The format is functional.
Assay [11] deals with Staphylococcus aureus. Put plainly: Antibacterial activity against Staphylococcus aureus MTCC 3160 measured after 24 hrs by NCCL protocol based broth dilution method. The format is functional. Conditions: MTCC 3160, 24 h.
Assay [12] deals with Salmonella paratyphi. The experiment in a line: Antibacterial activity against Salmonella paratyphi measured after 24 hrs by NCCL protocol based broth dilution method. The format is functional, Salmonella enterica subsp. enterica serovar Paratyphi A. Conditions: Salmonella enterica.
The subject of assay [13] is Salmonella typhi. Put plainly: Antibacterial activity against Salmonella typhi measured after 24 hrs by NCCL protocol based broth dilution method. The format is functional, Salmonella enterica subsp. enterica serovar Typhi. To be noted: Salmonella enterica.
Assay [14] deals with Klebsiella pneumoniae. The experiment in a line: Antibacterial activity against Klebsiella pneumoniae MTCC 3384 measured after 24 hrs by NCCL protocol based broth dilution method. The class given is functional. Conditions: MTCC 3384, 24 h.
Assay [15] deals with Candida albicans. Put plainly: Antifungal activity against Candida albicans MTCC 3017 measured after 48 hrs by NCCL protocol based broth dilution method. To be noted: MTCC 3017, 48 h. The format is functional.
Assay [16] deals with Aspergillus fumigatus. The experiment in a line: Antifungal activity against Aspergillus fumigatus MTCC 343 measured after 48 hrs by NCCL protocol based broth dilution method. The format is functional. To be noted: MTCC 343, 48 h.

Structures are written as SMILES. ≈ marks a conversion by molar mass, not a printed value.

For `CC(C)c1ccc(/N=C/c2cccc(B3OC[C@H]4O[C@@H]5OC(C)(C)O[C@@H]5[C@H]4O3)c2)cc1`, the zone of inhibition at 100 µg/disc in the assay with Streptococcus mutans [1] stood at 16 mm; with Micrococcus luteus [2], 12 mm; with Staphylococcus aureus [3], 13 mm; with Salmonella paratyphi [4] it was 21 mm; in the assay on Salmonella typhi [5] it was 23 mm; in the assay with Klebsiella pneumoniae [6] it was 16 mm. The values for the zone of inhibition at 100 µg/disc in the assay on Candida albicans [7] and in the assay with Aspergillus fumigatus [8] were 16 mm and 0 mm, respectively. In addition, the MIC came to 125 µg/mL (≈ 297 µM) in the assay with Streptococcus mutans [9]; 250 µg/mL (≈ 593 µM) with Micrococcus luteus [10]; 250 µg/mL (≈ 593 µM) in the assay on Staphylococcus aureus [11]; 125 µg/mL (≈ 297 µM) against Salmonella paratyphi [12]; 62.5 µg/mL (≈ 148 µM) in the assay on Salmonella typhi [13]; 125 µg/mL (≈ 297 µM) against Klebsiella pneumoniae [14]. Further, the values for the MIC against Candida albicans [15] and in the assay with Aspergillus fumigatus [16] were 250 µg/mL (≈ 593 µM) and 500 µg/mL (≈ 1190 µM), respectively.
On to `CC1(C)O[C@H]2O[C@@H]3COB(c4cccc(/C=N/c5ccc(Br)cc5)c4)O[C@@H]3[C@H]2O1`, for which the zone of inhibition at 100 µg/disc in the assay with Streptococcus mutans [1] was found to be 20 mm; in the assay with Micrococcus luteus [2], 14 mm; with Staphylococcus aureus [3], 13 mm; with Salmonella paratyphi [4], 21 mm; with Salmonella typhi [5] it was 22 mm; in the assay with Klebsiella pneumoniae [6] it was 18 mm. For the same molecule, the zone of inhibition at 100 µg/disc in the assay on Candida albicans [7] worked out at 16 mm; with Aspergillus fumigatus [8] it was 0 mm. In addition, the minimal inhibitory concentration (MIC) is 62.5 µg/mL (≈ 136 µM) in the assay on Streptococcus mutans [9]; 125 µg/mL (≈ 273 µM) in the assay with Micrococcus luteus [10]; 250 µg/mL (≈ 546 µM) against Staphylococcus aureus [11]; 62.5 µg/mL (≈ 136 µM) against Salmonella paratyphi [12]; 31.2 µg/mL (≈ 68.2 µM) with Salmonella typhi [13]; 62.5 µg/mL (≈ 136 µM) against Klebsiella pneumoniae [14]. Further, the MIC was 125 µg/mL (≈ 273 µM) in the assay with Candida albicans [15] and 250 µg/mL (≈ 546 µM) in the assay with Aspergillus fumigatus [16].
On to `O=[N+]([O-])c1ccc(O)c(/C=N/c2cccc(B(O)O)c2)c1`, for which the zone of inhibition at 100 µg/disc is 9 mm with Streptococcus mutans [1]; 0 mm in the assay with Micrococcus luteus [2]; 8 mm with Staphylococcus aureus [3]; 0 mm with Salmonella paratyphi [4]; 11 mm with Salmonella typhi [5]; 0 mm with Klebsiella pneumoniae [6]. Besides, the zone of inhibition at 100 µg/disc with Candida albicans [7] and with Aspergillus fumigatus [8] was 0 mm in each case. Further, the MIC came to 125 µg/mL (≈ 437 µM) in the assay on Streptococcus mutans [9]; 250 µg/mL (≈ 874 µM) in the assay on Micrococcus luteus [10]; 500 µg/mL (≈ 1750 µM) against Staphylococcus aureus [11]; 500 µg/mL (≈ 1750 µM) in the assay on Salmonella paratyphi [12]; 500 µg/mL (≈ 1750 µM) against Salmonella typhi [13]; 500 µg/mL (≈ 1750 µM) in the assay with Klebsiella pneumoniae [14]. Also, the MIC against Candida albicans [15] and against Aspergillus fumigatus [16] was 500 µg/mL (≈ 1750 µM) in each case.
Regarding `CC1(C)O[C@H]2O[C@@H]3COB(c4cccc(/N=C/c5ccc6ccccc6c5O)c4)O[C@@H]3[C@H]2O1`, the zone of inhibition at 100 µg/disc in the assay with Streptococcus mutans [1] was 17 mm; with Micrococcus luteus [2], 17 mm; in the assay with Staphylococcus aureus [3], 13 mm; in the assay with Salmonella paratyphi [4], 13 mm; with Salmonella typhi [5], 23 mm; in the assay with Klebsiella pneumoniae [6], 19 mm. Besides, the figures for the zone of inhibition at 100 µg/disc in the assay on Candida albicans [7] and in the assay on Aspergillus fumigatus [8] were 19 mm and 33 mm, respectively. In addition, the MIC against Streptococcus mutans [9] turned out to be 125 µg/mL (≈ 281 µM); against Micrococcus luteus [10], 62.5 µg/mL (≈ 140 µM); in the assay on Staphylococcus aureus [11] it was 125 µg/mL (≈ 281 µM); with Salmonella paratyphi [12], 125 µg/mL (≈ 281 µM); against Salmonella typhi [13] it was 62.5 µg/mL (≈ 140 µM); with Klebsiella pneumoniae [14] it was 62.5 µg/mL (≈ 140 µM). For the same molecule, the MIC was 62.5 µg/mL (≈ 140 µM) against Candida albicans [15] and 31.2 µg/mL (≈ 70.2 µM) with Aspergillus fumigatus [16].
With `CC1(C)O[C@H]2O[C@@H]3COB(c4ccc(C=O)cc4)O[C@@H]3[C@H]2O1`, the zone of inhibition at 100 µg/disc in the assay on Streptococcus mutans [1] was 21 mm; in the assay with Micrococcus luteus [2] it was 12 mm; in the assay on Staphylococcus aureus [3], 12 mm; with Salmonella paratyphi [4], 21 mm; with Salmonella typhi [5], 22 mm; in the assay with Klebsiella pneumoniae [6] it was 20 mm. Moreover, the zone of inhibition at 100 µg/disc amounted to 18 mm in the assay with Candida albicans [7] and 0 mm with Aspergillus fumigatus [8]. Besides, the MIC turned out to be 62.5 µg/mL (≈ 206 µM) against Streptococcus mutans [9]; 125 µg/mL (≈ 411 µM) with Micrococcus luteus [10]; 125 µg/mL (≈ 411 µM) against Staphylococcus aureus [11]; 31.2 µg/mL (≈ 103 µM) against Salmonella paratyphi [12]; 31.2 µg/mL (≈ 103 µM) in the assay on Salmonella typhi [13]; 62.5 µg/mL (≈ 206 µM) against Klebsiella pneumoniae [14]. Besides, the MIC turned out to be 125 µg/mL (≈ 411 µM) against Candida albicans [15] and 250 µg/mL (≈ 822 µM) with Aspergillus fumigatus [16].
